Among the data in patent US7928230B2, “Method for modulating GPR119 G protein-coupled receptor and selected compounds” (Bristol-Myers Squibb Company, priority 2007, dated 2011) are EC50 values, retold here.

For the assay, the target named is T1, human GPR119 (Homo sapiens, UniProt Q8TDV5).
T1 construct: expressed in transfected cells; host or cells: Flp-In-T-REx 293 cells, tetracycline-induced
T1 sequence (Q8TDV5 1-335): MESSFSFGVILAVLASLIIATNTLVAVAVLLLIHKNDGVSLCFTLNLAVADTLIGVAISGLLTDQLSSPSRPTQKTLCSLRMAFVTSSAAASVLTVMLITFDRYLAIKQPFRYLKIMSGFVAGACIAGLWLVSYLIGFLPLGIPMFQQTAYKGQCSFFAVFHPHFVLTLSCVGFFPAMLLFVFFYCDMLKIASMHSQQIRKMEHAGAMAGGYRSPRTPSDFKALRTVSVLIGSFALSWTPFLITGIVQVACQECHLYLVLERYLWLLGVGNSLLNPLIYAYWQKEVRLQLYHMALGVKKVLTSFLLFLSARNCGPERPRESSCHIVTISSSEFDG
The assay can be described thus: Human Tet-inducible cAMP assay. The class given is cell-based. To be noted: Flp-In-T-REx 293 tetracycline inducible cells expressing GPR119; Hit Hunter cAMP kit; 1 hour at 37° C.; read-out: hGPR119 EC50. On the procedure:
The in vitro modulation of recombinant human GPR119 was determined as follows.
Human Tet-inducible cAMP Assay
Cell lines expressing GPR119 are generated using the Flp-In-T-REx 293 tetracycline inducible gene expression system are cultured in culture medium comprising the following components: DMFM#11965, 10% FBS, 2 mM L-glutamine, 200 ug/ml Hygromycin B, and 15 ug/ml blasticidin.
For cAMP assays, cells are plated on 96 well plates (e.g., BD Falcon: REF 353948, black side, clear bottom, TC surface) at a density of about 4.5×10^4 cells per well in growth medium containing 1.0 ug/ml tetracycline (1.0 mg/ml stock). The cells are then incubated for 48 hours at 37° C.
Following the incubation, the growth medium is removed from the wells and the wells rinsed (once) with the assay buffer included in the Hit Hunter cAMP kit (100 μl/well). Following the wash, 20 μl of assay buffer is added to each well, followed by addition of 10 μl of a 3× concentration compound working solution. The solution is then mixed. The final concentration range of compound is from about 10^−5M to about 10^−11M. The reagents are then incubated at 37° C. at 5% CO2 for 1 hour.
The manufacturer's protocol may be followed for cAMP determination. The Hit Hunter cAMP kit protocol is outlined for the HIT-T15 cAMP assays described above.
Compounds of the present invention were tested in the Human Tet-inducible cAMP assay described immediately above and the results shown in Table 4 below were obtained.

Counter-ions that a name gives are not always drawn.

With `CCCc1cnc(N2CCC(Oc3ccn(-c4ccc(-n5cncn5)cc4)c(=O)c3)CC2)nc1` [Example 1, 1-(4-(1H-1,2,4-triazol-1-yl)phenyl)-4-(1-(5-propylpyrimidin-2-yl)piperidin-4-yloxy)pyridin-2(1H)-one, hydrochloride salt], the concentration for a half-maximal effect (EC50) amounted to 87 nM.

`CCCc1cnc(N2CCC(Oc3ccn(-c4ccc(-n5ccnc5)cc4)c(=O)c3)CC2)nc1` [Example 2, 1-(4-(1H-imidazol-1-yl)phenyl)-4-(1-(5-propylpyrimidin-2-yl)piperidin-4-yloxy)pyridin-2(1H)-one, hydrochloride salt]: the EC50 came out at 94 nM.

Turning to `CCCc1cnc(N2CCC(Oc3ccn(-c4ccc(-c5ncco5)cc4)c(=O)c3)CC2)nc1` [Example 3, 1-(4-(oxazol-2-yl)phenyl)-4-(1-(5-propylpyrimidin-2-yl)piperidin-4-yloxy)pyridin-2(1H)-one], the EC50 worked out at 204 nM.

With `CC(C)OC(=O)N1CCC(Oc2ccn(-c3ccc(-n4cncn4)cc3)c(=O)c2)CC1` [Example 4, isopropyl 4-(1-(4-(1H-1,2,4-triazol-1-yl)phenyl)-2-oxo-1,2-dihydropyridin-4-yloxy)piperidine-1-carboxylate], the EC50 came to 5190 nM.
